Assay results taken from patent US20260055118A1, “VISIBLE LIGHT SENSITIVE PHOTOREMOVABLE PROTECTING GROUPS, PREPARATION PROCESS THEREOF, PHOTOACTIVATABLE CONJUGATES COMPRISING THEM AND USES THEREOF” (HUN-REN TERMÉSZETTUDOMÁNYI KUTATÓKÖZPONT, priority 2022, published 2026).
Where two headings read alike, the source gives them in different places.

Test system: SK-OV-3 cells
Test: Cytotoxicity determination, MTT assay, with light irradiation and in the dark
Format: cell-based, human
Procedure: A viability test was carried out to assess the toxicity of SN38 as well as the photoremovable protecting group-SN38 conjugates X1′-SN38 and X2′-SN38 after light irradiation and in the dark on SKOV3 cells. Cells were transferred into a 48-well plate (Thermo Fisher Scientific, 130187) (4,500 cells/well) and incubated for 20-24 h at 37° C. in a 5% CO2 atmosphere in McCoy's 5A (Modified) Medium, HEPES (Gibco 22330021) supplemented with 10% FBS (Gibco 10500-064), 1% penicillin-streptomycin (Gibco 15140-122). Cells were treated with compounds in the concentration range of 10^−11-10^−4 M for 90 min followed by light irradiation or kept in the dark at 37° C. in 5% CO2 atmosphere. After treatment and irradiation, cells were kept at 37° C. in 5% CO2 atmosphere for 72 hours. After the incubation period, supernatants were replaced with 0.5 mg/ml MTT (3-(4,5-dimethylthiazol-2-yl)-2,5-diphenyltetrazolium bromide; Sigma M5655-1G) solution (in complete DMEM: Dulbecco's modified Eagle's medium (DMEM, Gibco 41965-039), supplemented with 10% FBS (Gibco 10500-064), 1% penicillin-streptomycin (Gibco 15140-122), 1% Glutamax (Gibco 35050-061) and 1% sodium pyruvate (Life Technologies, Gibco 11360-070)) and incubated for 120 min at 37° C. in the dark. The insoluble formazan crystals were dissolved in 250 μl DMSO. Absorbance was detected at 540 nm using a Biotek Synergy 2 Cytation 3 imaging plate reader with Gen5 software version 3.08 (Biotek Winooski, VT, USA). Viability was expressed as percentage (n=3) of the readings of untreated control cells.
To determine phototoxic properties of compounds X1′-SN38 and X2′-SN38, standard MTT assays were performed on SK—OV-3 cells. To irradiate multiple specimens, an LED panel was custom-made for a 48-well plate consisting of 24 LEDs using green (4 W input power, λmax=549 nm half-width: 16 nm, output power: 72 mW), orange (4 W input power, λmax=605 nm half-width: 10 nm, output power: 140 mW) and red (4 W input power, λmax=658 nm half-width: 10 nm, for Q=CMe2 output power: 210 mW) LED irradiation. The board was specifically designed for the plates and offer water cooling to minimize heat shock to cells. Every second well can be irradiated with an individual LED. First, the cytotoxicity of the free active agent, SN38 was determined to be EC50 ^˜6 nM. Treatment of cells with the photoactivatable SN38 derivatives for 72 hours in the absence of light (without washing) produced moderate cytotoxic effects, sigificantly lowering the effectiveness of the active agent. This confirms that SN38 is a suitable candidate for light-activated prodrug applications. […] Reducing the irradiation time down to 10 s still produced significant phototoxicity in higher concentrations (see FIG. 8a for compound X2′-SN38) even assuming incomplete uncaging as a result of the substantial dark stability of compound X2′-SN38.

`CCc1c2c(nc3ccc(OC(=O)N(C)CCN(C)C(=O)OC(C)c4c5ccc(=[N+]6CCCC6)cc-5oc5cc(N6CCCC6)ccc45)cc13)-c1cc3c(c(=O)n1C2)COC(=O)C3(O)CC.[I-]` (mixture of isomers) [X1′-SN38] gave an EC50 (dark, (green) series, read-out: Dark EC50 values) of 4 µM, an EC50 (dark, (orange) series, read-out: Dark EC50 values) of 1.1 µM and an EC50 (green light irradiation, 15 min, read-out: EC50 values after irradiation) of 0.063 µM. It also gave a Photoindex (green light, 15 min) of 64, a Photoindex (orange light, 5 min) of 45 and an EC50 (orange light, 5 min, read-out: EC50 values after irradiation) of 0.023 µM.
